Read-outs that look alike come from different tables or passages of the source.

Data set [1] in a line: In vivo PK studies, intravenous injection. The following applies: rat, plasma, male SD rats; for Vd: read-out: Vdss. The protocol:
Male SD rats were used as test animals. After intravenous injection, the blood drug concentration of the compounds was determined and the pharmacokinetic behavior was evaluated.
Three healthy adult male SD rats were selected. The test compounds were mixed with an appropriate amount of a vehicle of the intravenous injection group and prepared into a 0.5 or 1 mg/mL clear solution, which was filtered with a […] microporous filter membrane for later use. After intravenous administration to the rats at 0.5 or 1 mg/kg, whole blood was collected at 0.083, 0.25, 0.5, 1, 2, 4, 8, 24 hours after administration and placed in EDTA-K2 anticoagulant tubes, and the mixture was vortexed thoroughly and centrifuged at 3200 g, 4° C. for 10 minutes to obtain the plasma. The LC-MS/MS method was used to determine the drug concentration, and the Phoenix WinNonlin 6.3 pharmacokinetic software was used to calculate the relevant pharmacokinetic parameters by the non-compartmental model linear logarithmic trapezoidal method. • Vehicle 1:10% DMSO/10% Kolliphor® HS 15/80% (20% sulfobutyl-β-cyclodextrin); • Vehicle 2:10% DMSO+20% polyoxyethylenated castor oil+70% water; • Vehicle 3:5% DMSO+10% Kolliphor® HS 15+85% physiological saline; • Vehicle 4:10% DMSO+60% polyethylene glycol 400+30% (10% aqueous hydroxypropyl-β-cyclodextrin solution).

The next data set deals with T1, hTRPC5-T478C (Homo sapiens, UniProt Q9UL62).
T1 sequence (Q9UL62 1-973): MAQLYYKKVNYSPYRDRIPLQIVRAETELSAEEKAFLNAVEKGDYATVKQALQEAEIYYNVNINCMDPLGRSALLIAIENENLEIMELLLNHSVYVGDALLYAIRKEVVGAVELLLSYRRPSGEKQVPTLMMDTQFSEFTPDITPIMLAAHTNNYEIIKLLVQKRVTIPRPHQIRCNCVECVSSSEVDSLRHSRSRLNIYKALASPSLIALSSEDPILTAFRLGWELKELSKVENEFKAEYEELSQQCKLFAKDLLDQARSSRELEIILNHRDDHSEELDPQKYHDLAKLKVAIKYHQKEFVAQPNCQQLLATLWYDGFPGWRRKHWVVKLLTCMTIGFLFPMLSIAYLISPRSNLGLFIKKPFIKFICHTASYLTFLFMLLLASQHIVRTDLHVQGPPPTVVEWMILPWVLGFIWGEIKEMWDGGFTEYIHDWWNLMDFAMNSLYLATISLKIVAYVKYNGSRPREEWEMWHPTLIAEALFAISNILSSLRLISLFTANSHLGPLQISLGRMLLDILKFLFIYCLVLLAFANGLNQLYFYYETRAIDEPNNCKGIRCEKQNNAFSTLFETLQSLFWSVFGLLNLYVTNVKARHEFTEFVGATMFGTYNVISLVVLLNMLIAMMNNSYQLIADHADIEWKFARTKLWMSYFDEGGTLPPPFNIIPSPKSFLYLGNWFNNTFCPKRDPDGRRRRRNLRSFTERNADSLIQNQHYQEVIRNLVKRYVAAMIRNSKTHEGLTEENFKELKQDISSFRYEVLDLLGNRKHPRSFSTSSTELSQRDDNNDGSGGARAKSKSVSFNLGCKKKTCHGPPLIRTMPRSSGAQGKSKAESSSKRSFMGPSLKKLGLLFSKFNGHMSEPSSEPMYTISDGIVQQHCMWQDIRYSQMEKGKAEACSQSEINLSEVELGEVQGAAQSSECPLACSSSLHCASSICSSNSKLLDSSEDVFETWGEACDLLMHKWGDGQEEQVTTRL
As to the kind of experiment: hTRPC5-T478C FLIPR calcium flux IC50 assay. Format: cell-based. The following applies: hTRPC5-T478C-HEK cells, Englerin A as channel agonist. As to the method:
Cell culture: hTRPC5-T478C-HEK cells were cultured in a humid environment in 5% CO2 at 37° C.
Cell culture medium ingredients: • DMEM, Supplier: Gibco, Catalog No. 11965-092; • FBS, Supplier: Gibco, Catalog No. 10099-141C, Concentration: 10%; • Pen/Strep, Supplier: Invitrogen, Catalog No. 15140-122, Concentration: 1%; • Zeocin, Supplier: Invitrogen, Catalog No. R25005, Concentration: 200 μg/mL; • Blasticidin S, Supplier: Invitrogen, Catalog No. R21001, Concentration: 5 μg/mL.
In general, the TRPC5-T478C cell line was passaged three times weekly. The dilution factor for each passage was 1:3. Once the cells reached about 80% confluence in the T-75 flask, the cell line was digested with trypsin for about 1 minute and the cell suspension was removed from the flask with a pipette. Depending on the dilution ratio, the removed cell suspension would be transferred to another T-75 flask containing cell culture medium. Note that in order to maintain the logarithmic growth of the cells, the confluence of the cells should be maintained at the subconfluent stage and the cells should be passaged once every 2 to 3 days depending on the proliferation rate of the cell line.
(1) Preparation of cell plate: the cells were separated according to the above-mentioned passaging and the cell density and viability were determined using a cell counter. The volume of the cell suspension was adjusted with a cell culture medium. After the density reached to the plating density, 1 μg/mL tetracycline was added to induce hTRPC5-T478C channel expression. The induced hTRPC5-T478C cells were then seeded onto poly-D-lysine (PDL)-coated 384-well plates at a density of 20000 cells/well (30 μL/well). Then the cells were cultured overnight in a cell culture incubator.
(2) Preparation of compound plate: the compounds were generally diluted with DMSO, prepared into a mother liquor and stored in a −20° C. refrigerator. A compound plating program was set on the ECHO processor, and the compounds were plated with ECHO according to the concentration gradient that was already set. In general, 9 concentrations were included with the highest concentration at 10 μM, 3-fold dilution, and 2 replicate wells. Englerin A was used as the channel agonist.
(3) On-machine testing: the cell plates and compound plates were prepared according to the above-mentioned methods. After the cell confluence of the cell plate reached 80%-90%, the cells were removed from the incubator and the testing started. Ca5 dye (Molecular Devices #R8185) was formulated with test buffer. After the cell plate culture medium was removed with Bravo, 25 μL of Ca5 dye was added to each well, and the plate was incubated for 1 hour. After 1 hour, the cell plate and compound plate were placed in FLIPR^TETRA (Molecular Devices, USA) for FLIPR detection.
Data analysis was performed using Excel 2013 (Microsoft, USA) software and GraphPad Prism 6.01 software. The maximum signal was generated by FLIPR software. Data analysis was performed using Excel (2013) and Prism 6.01. Data quality and data stability were controlled using S/B>2.50 and Z factor>0.50. The calculation formula was as follows: S/B=Avg100%/Avg0%; Z factor=1−(3*SD100%+3*SDO %)/|Avg100%-Avg0%.
In general terms: A change in cytosolic calcium serves as a functional read-out for many receptors and channels.

As to `O=c1[nH]ncc(N2CCc3c(ncnc3Sc3ccc(F)cc3C(F)(F)F)C2)c1Cl` [Compound WX002], in data set [1] (1 mg/kg, 1 mpk), the AUC(0-t) (as a rule, the area under the concentration-time curve up to a stated or last time point) turned out to be 1.97 µM·h; the clearance (commonly the rate of elimination divided by the concentration) amounted to 18.2 mL/min/kg; the half-life (usually the time in which the quantity being followed falls by half) was 1.83 h; the Vd amounted to 2.28 L/kg. For the same molecule, the concentration for half-maximal inhibition (IC50) (in general, the concentration at which inhibition is half-maximal) at hTRPC5-T478C is 27 nM.
For `O=c1[nH]ncc(N2CCc3c(ncnc3Oc3ccc(F)cc3Br)C2)c1Cl` [Compound WX004], in that order: 8.26 µM·h, 4.6 mL/min/kg, 2.02 h, 0.77 L/kg and 40 nM.
`O=c1[nH]ncc(N2CCc3c(ncnc3Oc3ccc(F)cc3C(F)(F)F)C2)c1Br` [Compound WX009]: in data set [1] (0.5 mg/kg, 0.5 mpk), the area under the curve AUC(0-t) worked out at 2.38 µM·h, the clearance turned out to be 6.52 mL/min/kg, the half-life is 2.59 h and the Vd was determined as 1.37 L/kg. In addition, the 50% inhibitory concentration (IC50) on hTRPC5-T478C turned out to be 37 nM.
`CC(F)(F)c1cc(F)ccc1Oc1ncnc2c1CCN(c1cn[nH]c(=O)c1Cl)C2` [Compound WX010]: in data set [1] (1 mg/kg, 1 mpk), the exposure AUC(0-t) came out at 4.75 µM·h, the clearance worked out at 7.81 mL/min/kg, the half-life is 1.73 h and the Vd came to 1.13 L/kg. The IC50 at hTRPC5-T478C was determined as 71 nM.
For `COCc1nc2c(c(Oc3ccc(F)cc3C(F)(F)F)n1)CCN(c1cn[nH]c(=O)c1Cl)C2` [Compound WX011], in that order: 4.05 µM·h, 8.29 mL/min/kg, 1.46 h, 1.06 L/kg and 80 nM.
As to `O=c1[nH]ncc(N2CCc3c(nc(CO)nc3Sc3ccc(F)cc3C(F)(F)F)C2)c1Cl` [Compound WX012], in data set [1] (1 mg/kg, 1 mpk), the AUC(0-t) was 3.33 µM·h, the clearance was determined as 10.1 mL/min/kg, the half-life was 2.31 h and the Vd is 1.62 L/kg. For the same molecule, the concentration for half-maximal inhibition (IC50) at hTRPC5-T478C turned out to be 24 nM.
As to `Nc1nc2c(c(Sc3ccc(F)cc3C(F)(F)F)n1)CCN(c1cn[nH]c(=O)c1Cl)C2` [Compound WX013], in data set [1] (1 mg/kg, 1 mpk), the AUC(0-t) was 9.13 µM·h, the clearance was 3.94 mL/min/kg, the half-life is 2.65 h and the Vd is 0.88 L/kg. In addition, the IC50 at hTRPC5-T478C worked out at 55.7 nM.

These data come from US20250122190A1, “HALOGEN-SUBSTITUTED PYRIDAZINONE COMPOUND AND APPLICATION THEREOF” (MEDSHINE DISCOVERY INC., priority 2021, published 2025).
